Test results reported in ChEMBL document CHEMBL1909046, “DrugMatrix in vitro pharmacology data”.

Columns and labels:
Androgen receptor = target: T1, Androgen receptor (Rattus norvegicus, UniProt P15207)
T1 sequence (P15207 whole entry): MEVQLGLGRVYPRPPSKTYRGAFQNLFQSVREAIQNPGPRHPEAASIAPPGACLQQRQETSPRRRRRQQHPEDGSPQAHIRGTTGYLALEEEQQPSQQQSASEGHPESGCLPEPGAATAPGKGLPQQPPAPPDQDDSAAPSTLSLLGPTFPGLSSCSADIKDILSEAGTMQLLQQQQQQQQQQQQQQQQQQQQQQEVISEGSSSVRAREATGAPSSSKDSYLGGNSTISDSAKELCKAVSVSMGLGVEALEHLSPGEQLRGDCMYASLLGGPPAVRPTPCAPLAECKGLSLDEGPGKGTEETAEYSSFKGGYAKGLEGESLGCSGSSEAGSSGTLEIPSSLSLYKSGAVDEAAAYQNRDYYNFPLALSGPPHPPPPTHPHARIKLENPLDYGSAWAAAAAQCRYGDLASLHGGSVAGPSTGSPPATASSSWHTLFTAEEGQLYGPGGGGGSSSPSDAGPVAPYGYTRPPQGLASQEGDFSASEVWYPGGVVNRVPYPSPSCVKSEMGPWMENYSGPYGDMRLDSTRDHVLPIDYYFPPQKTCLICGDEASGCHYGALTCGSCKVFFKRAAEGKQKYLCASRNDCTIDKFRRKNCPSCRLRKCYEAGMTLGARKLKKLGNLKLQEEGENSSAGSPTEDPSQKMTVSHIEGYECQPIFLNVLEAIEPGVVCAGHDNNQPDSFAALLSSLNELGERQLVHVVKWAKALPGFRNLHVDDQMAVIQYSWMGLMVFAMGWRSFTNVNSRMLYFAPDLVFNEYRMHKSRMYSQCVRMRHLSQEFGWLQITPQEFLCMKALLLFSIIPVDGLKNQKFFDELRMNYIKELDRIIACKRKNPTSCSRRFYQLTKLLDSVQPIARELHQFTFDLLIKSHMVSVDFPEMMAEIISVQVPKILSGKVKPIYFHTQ

[1] = target: Voltage-gated inwardly rectifying potassium channel KCNH2 (Homo sapiens, UniProt Q12809)
Voltage-gated inwardly rectifying potassium channel KCNH2, sequence (Q12809 whole entry): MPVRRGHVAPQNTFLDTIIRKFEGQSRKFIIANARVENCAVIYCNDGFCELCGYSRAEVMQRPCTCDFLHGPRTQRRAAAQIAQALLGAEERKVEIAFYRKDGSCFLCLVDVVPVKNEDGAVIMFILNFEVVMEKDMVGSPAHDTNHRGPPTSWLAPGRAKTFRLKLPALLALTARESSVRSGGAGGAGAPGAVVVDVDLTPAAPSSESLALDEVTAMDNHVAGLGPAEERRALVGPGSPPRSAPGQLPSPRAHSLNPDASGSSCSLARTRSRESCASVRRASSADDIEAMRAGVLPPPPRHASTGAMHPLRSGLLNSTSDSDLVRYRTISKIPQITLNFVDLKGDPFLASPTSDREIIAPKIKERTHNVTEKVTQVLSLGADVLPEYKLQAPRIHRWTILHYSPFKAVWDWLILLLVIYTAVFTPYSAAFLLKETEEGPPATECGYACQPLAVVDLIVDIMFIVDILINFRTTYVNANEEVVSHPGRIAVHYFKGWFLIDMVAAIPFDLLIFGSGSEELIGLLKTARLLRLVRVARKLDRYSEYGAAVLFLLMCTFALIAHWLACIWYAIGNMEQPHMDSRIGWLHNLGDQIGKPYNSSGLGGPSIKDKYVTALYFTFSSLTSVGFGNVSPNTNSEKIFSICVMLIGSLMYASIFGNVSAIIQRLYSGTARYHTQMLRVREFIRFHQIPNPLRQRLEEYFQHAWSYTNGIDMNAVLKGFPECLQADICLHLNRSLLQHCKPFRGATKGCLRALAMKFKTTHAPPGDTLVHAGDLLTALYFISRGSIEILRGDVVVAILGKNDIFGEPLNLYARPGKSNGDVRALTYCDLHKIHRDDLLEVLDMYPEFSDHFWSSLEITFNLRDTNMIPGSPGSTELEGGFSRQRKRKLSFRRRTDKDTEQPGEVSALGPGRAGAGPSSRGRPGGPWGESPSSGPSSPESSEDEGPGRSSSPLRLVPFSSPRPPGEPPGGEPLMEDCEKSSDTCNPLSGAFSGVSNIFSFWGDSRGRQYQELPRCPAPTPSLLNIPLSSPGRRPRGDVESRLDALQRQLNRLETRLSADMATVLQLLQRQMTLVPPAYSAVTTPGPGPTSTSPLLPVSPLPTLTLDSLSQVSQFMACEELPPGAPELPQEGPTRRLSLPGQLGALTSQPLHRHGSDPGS

Compound | IC50 (Androgen receptor) | Ki (Androgen receptor) | IC50 [1] | Ki [1]
C[C@H]1C[C@@H]2[C@H]([C@@H](O)C[C@@]3(C)[C@H]2CC[C@]3(O)C(=O)CO)[C@@]2(C)C=CC(=O)C=C12 [METHYLPREDNISOLONE] | 26.7 µM | 17.8 µM |  | 
CN[C@H]1CC[C@@H](c2ccc(Cl)c(Cl)c2)c2ccccc21 [SERTRALINE] |  |  | 8.32 µM | 6.81 µM
